How the values were obtained:
[1] = target: T1, second bromodomain of Brd2 (BRD2(2)) (Homo sapiens, UniProt P25440); assay: Inhibition of tetra-acetylated histone H4 binding to Brd2 bromodomain 2 (TR-FRET); set-up: key: Active: Compounds with an IC50 value less than 30 μM were deemed to be active.; Not Active: Compounds with an IC50 value less than 30 μM were deemed to be active; conditions: tetra-acetylated histone H4 peptide, active = IC50 <30 μM
T1 construct: made in house; host or cells: E. coli BL21 (DE3)
Method: (§1) Proteins were cloned and overexpressed with a N-terminal 6×His tag, then purified by nickel affinity followed by size exclusion chromatography. Briefly, E. coli BL21 (DE3) cells were transformed with a recombinant expression vector encoding N-terminally Nickel affinity tagged bromodomains from Brd2, Brd3, Brd4. Cell cultures were incubated at 37° C. with shaking to the appropriate density and induced overnight with IPTG. The supernatant of lysed cells was loaded onto Ni-IDA column for purification. Eluted protein is pooled, concentrated and further purified by size exclusion chromatography. Fractions representing monomeric protein were pooled, concentrated, aliquoted, and frozen at −80° C. for use in subsequent experiments.
(§2) Binding of tetra-acetylated histone H4 and BET bromodomains was confirmed by a Time Resolved Fluorescence Resonance Energy Transfer (TR-FRET) method. N-terminally His-tagged bromodomains (200 nM) and biotinylated tetra-acetylated histone H4 peptide (25-50 nM, Millipore) were incubated in the presence of Europium Cryptate-labeled streptavidin (Cisbio Cat. #610SAKLB) and XL665-labeled monoclonal anti-His antibody (Cisbio Cat. #61HISXLB) in a white 96 well microtiter plate (Greiner). For inhibition assays, serially diluted test compound was added to these reactions in a 0.2% final concentration of DMSO. Final buffer concentrations were 30 mM HEPES pH 7.4, 30 mM NaCl, 0.3 mM CHAPS, 20 mM phosphate pH 7.0, 320 mM KF, 0.08% BSA). After a 2-h incubation at room temperature, the fluorescence by FRET was measured at 665 and 620 nm by a SynergyH4 plate reader (Biotek). Illustrative results with the first bromodomain of Brd4 and the second bromodomain of Brd2 are shown below. The binding inhibitory activity was shown by a decrease in 665 nm fluorescence relative to 620 nm. IC50 values were determined from a dose response curve.

[2] = target: T2, Brd4 bromodomain 1 (BRD4(1)) (Homo sapiens, UniProt O60885); assay: Inhibition of tetra-acetylated histone H4 binding to Brd4 bromodomain 1 (TR-FRET); set-up: key: Active: Compounds with an IC50 value less than 30 μM were deemed to be active.; Not Active: Compounds with an IC50 value less than 30 μM were deemed to be active; conditions: tetra-acetylated histone H4 peptide, active = IC50 <30 μM
T2 construct: Illustrative results with the first bromodomain of Brd4; made in house; host or cells: E. coli BL21 (DE3)
Method: as §1, §2

T1 sequence (P25440 344-453 limits assumed): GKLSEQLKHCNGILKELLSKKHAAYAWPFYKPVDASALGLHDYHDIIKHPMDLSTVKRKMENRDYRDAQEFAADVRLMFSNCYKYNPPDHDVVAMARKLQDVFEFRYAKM

SMILES	FRET activity (IC50 <30 μM) BRD2(2) [1]	FRET activity (IC50 <30 μM) BRD4(1) [2]
Cc1noc(C)c1-c1ccc(=O)n(Cc2cccc(OC(F)(F)F)c2)n1 [Example 36, 6-(3,5-Dimethylisoxazol-4-yl)-2-(3-(trifluoromethoxy)benzyl)pyridazin-3(2H)-one]	Active	Active
O=c1ccc(-c2cnsc2)cn1Cc1ccccc1 [Example 59, 1-Benzyl-5-(isothiazol-4-yl)pyridin-2(1H)-one]	Active	Not Active
Cc1[nH]cnc1-c1ccc(=O)n(Cc2ccccc2)c1 [Example 81, 1-Benzyl-5-(5-methyl-1H-imidazol-4-yl)pyridin-2(1H)-one]	Active	Not Active
Cc1cc(=O)n(Cc2ccccc2)cc1-c1c(C)noc1C [Example 12, 1-Benzyl-5-(3,5-dimethylisoxazol-4-yl)-4-methylpyridin-2(1H)-one]	Active	Active
Cc1noc(C)c1-c1ccc(=O)n(Cc2cccc(C(F)(F)F)c2)n1 [Example 31, 6-(3,5-Dimethylisoxazol-4-yl)-2-(3-(trifluoromethyl)benzyl)pyridazin-3(2H)-one]	Active	Active
Cc1cc(F)cc(Cn2nc(-c3c(C)noc3C)ccc2=O)c1 [Example 32, 6-(3,5-Dimethylisoxazol-4-yl)-2-(3-fluoro-5-methylbenzyl)pyridazin-3(2H)-one]	Active	Not Active
Cc1noc(C)c1-c1cc(C2CC2)c(=O)n(Cc2ccccc2)c1 [Example 67, 1-Benzyl-3-cyclopropyl-5-(3,5-dimethylisoxazol-4-yl)pyridin-2(1H)-one]	Active	Active
Cc1noc(C)c1-c1ccc(=O)n(CC2CCOCC2)n1 [Example 37, 6-(3,5-Dimethylisoxazol-4-yl)-2-((tetrahydro-2H-pyran-4-yl)methyl)pyridazin-3(2H)-one]	Active	Active
Cc1noc(C)c1-c1ccc(=O)n(Cc2cnoc2)n1 [Example 97, 6-(3,5-Dimethylisoxazol-4-yl)-2-(isoxazol-4-ylmethyl)pyridazin-3(2H)-one]	Not Active	Active
Cc1oncc1-c1cc(C)c(=O)n(Cc2ccccc2)n1 [Example 20, 2-Benzyl-4-methyl-6-(5-methylisoxazol-4-yl)pyridazin-3(2H)-one]	Active	Not Active
Cc1noc(C)c1-c1cc(C)c(=O)n(CC2CC2)n1 [Example 85, 2-(Cyclopropylmethyl)-6-(3,5-dimethylisoxazol-4-yl)-4-methylpyridazin-3(2H)-one]	Active	Active
Cc1noc(C)c1-c1ccc(=O)n(CC2CC2)n1 [Example 45, 2-(Cyclopropylmethyl)-6-(3,5-dimethylisoxazol-4-yl)pyridazin-3(2H)-one]	Active	Active
Cc1noc(C)c1-c1cc(NCc2ccccc2)c(=O)n(Cc2ccccc2)c1 [Example 74, 1-Benzyl-3-(benzylamino)-5-(3,5-dimethylisoxazol-4-yl)pyridin-2(1H)-one]	Active	Active
Cc1noc(C)c1-c1ccc(=O)n(Cc2ccc(OC(F)(F)F)cc2)n1 [Example 76, 6-(3,5-Dimethylisoxazol-4-yl)-2-(4-(trifluoromethoxy)benzyl)pyridazin-3(2H)-one]	Active	Active
COc1cc(-c2ccc(=O)n(Cc3ccc(S(C)(=O)=O)cc3)n2)cc(OC)c1OC [Example 116, 2-(4-(Methylsulfonyl)benzyl)-6-(3,4,5-trimethoxyphenyl)pyridazin-3(2H)-one]	Active	Active
O=c1ccc(-c2cnoc2)cn1Cc1ccccc1 [Example 58, 1-Benzyl-5-(isoxazol-4-yl)pyridin-2(1H)-one]	Active	Not Active
Cc1noc(C)c1-c1nn(Cc2ccccc2)c(=O)c2ccccc12 [Example 170, 2-Benzyl-4-(3,5-dimethylisoxazol-4-yl)-2H-phthalazin-1-one]	Active	Not Active
Cc1noc(C)c1-c1ccc(=O)n(Cc2ncccn2)n1 [Example 3, 6-(3,5-Dimethylisoxazol-4-yl)-2-(pyrimidin-2-ylmethyl)pyridazin-3(2H)-one]	Active	Not Active
O=c1ccc(-c2ccnc(O)c2)cn1Cc1ccccc1 [Example 62, 1-Benzyl-2′-hydroxy-[3,4′-bipyridin]-6(1H)-one]	Active	Not Active
Cc1noc(C)c1-c1ccc(=O)n(Cc2ccc3[nH]cnc3c2)n1 [Example 143, 2-((1H-Benzo[d]imidazol-5-yl)methyl)-6-(3,5-dimethylisoxazol-4-yl)pyridazin-3(2H)-one]	Active	Active

Second part, the compound after the results:

FRET activity (IC50 <30 μM) BRD2(2) [1]	FRET activity (IC50 <30 μM) BRD4(1) [2]	SMILES
Active	Active	Cc1noc(C)c1-c1ccc(=O)n([C@@H](C)c2ccc(F)cc2)c1 (single isomer, unassigned) [Example 110]
Active	Active	Cc1noc(C)c1-c1ccc(=O)n(Cc2ccc(F)cc2Cl)c1 [Example 140, 1-(2-Chloro-4-fluorobenzyl)-5-(3,5-dimethylisoxazol-4-yl)pyridin-2(1H)-one]
Active	Active	Cc1noc(C)c1-c1ccc(=O)n(C(=O)c2ccc(F)cc2)c1 [Example 68, 5-(3,5-Dimethylisoxazol-4-yl)-1-(4-fluorobenzoyl)pyridin-2(1H)-one]
Active	Active	Cc1noc(C)c1-c1ccc(=O)n(Cc2ccc(CN(C)C)cc2)c1 [Example 9, 1-(4-((Dimethylamino)methyl)benzyl)-5-(3,5-dimethylisoxazol-4-yl)pyridin-2(1H)-one hydrochloric acid]
Active	Active	Cc1noc(C)c1-c1ccc(=O)n(CC2CC2)c1 [Example 48, 1-(Cyclopropylmethyl)-5-(3,5-dimethylisoxazol-4-yl)pyridin-2(1H)-one]
Active	Active	Cc1noc(C)c1-c1ccc(=O)n(Cc2ccc(S(C)(=O)=O)cc2)c1 [Example 145, 5-(3,5-Dimethylisoxazol-4-yl)-1-(4-(methylsulfonyl)benzyl)pyridin-2(1H)-one]
Active	Active	Cc1noc(C)c1-c1ccc(=O)n(C(=O)c2ccc(Cl)cc2)c1 [Example 69, 1-(4-Chlorobenzoyl)-5-(3,5-dimethylisoxazol-4-yl)pyridin-2(1H)-one]
Active	Active	Cc1ccc(Cn2cc(-c3c(C)noc3C)ccc2=O)cc1 [Example 41, 5-(3,5-Dimethylisoxazol-4-yl)-1-(4-methylbenzyl)pyridin-2(1H)-one]
Active	Active	Cc1noc(C)c1-c1ccc(=O)n(Cc2ccccc2OC(F)(F)F)c1 [Example 40, 5-(3,5-Dimethylisoxazol-4-yl)-1-(2-(trifluoromethoxy)benzyl)pyridin-2(1H)-one]
Active	Active	COc1ccc(Cn2nc(-c3c(C)noc3C)ccc2=O)cc1 [Example 33, 6-(3,5-Dimethylisoxazol-4-yl)-2-(4-methoxybenzyl)pyridazin-3(2H)-one]
Active	Active	Cc1noc(C)c1-c1ccc(=O)n(Cc2ncccn2)c1 [Example 163, 5-(3,5-Dimethylisoxazol-4-yl)-1-(pyrimidin-2-ylmethyl)pyridin-2(1H)-one]

Source: patent US9271978B2 (Zenith Epigenetics Corp., priority 2012, dated 2016)
